Several values for one entry are separate records, joined by “and”; a condition that tells them apart may be missing. Equal entries are not always repeated. Toxic doses and inconclusive results are not listed.
Tested on: BDF1 mice, P388 leukemia ip, median survival T/C
Experiment: NCI In Vivo Anticancer Drug Screen. Data for tumor model P388 Leukemia (intraperitoneal) in B6D2F1 (BDF1) mice
Settings: endpoint: median survival time, higher = longer survival
Method in brief: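 T/C = treated-group survival ÷ vehicle-control survival; tumour transplanted into mice before dosing.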

[1] = dose: 100.0 mg/kg/injection, schedule: Q01DX009 (ip), vehicle: saline with Tween-80
[2] = dose: 100.0 mg/kg/injection, schedule: Q04DX003 (ip), vehicle: saline with Tween-80
[3] = dose: 200.0 mg/kg/injection, schedule: Q01DX009 (ip), vehicle: saline with Tween-80
[4] = dose: 200.0 mg/kg/injection, schedule: Q04DX003 (ip), vehicle: saline with Tween-80
[5] = dose: 400.0 mg/kg/injection, schedule: Q04DX003 (ip), vehicle: saline with Tween-80
[6] = dose: 200.0 mg/kg/injection, schedule: Q01DX009 (ip), vehicle: Klucel (hydroxypropylcellulose) (HPC)
[7] = dose: 400.0 mg/kg/injection, schedule: Q01DX009 (ip), vehicle: Klucel (hydroxypropylcellulose) (HPC)
[8] = dose: 12.5 mg/kg/injection, schedule: Q04DX003 (ip), vehicle: saline
[9] = dose: 25.0 mg/kg/injection, schedule: Q04DX003 (ip), vehicle: saline with Tween-80
[10] = dose: 25.0 mg/kg/injection, schedule: Q04DX003 (ip), vehicle: saline
[11] = dose: 50.0 mg/kg/injection, schedule: Q01DX009 (ip), vehicle: saline with Tween-80
[12] = dose: 6.25 mg/kg/injection, schedule: Q01DX009 (ip), vehicle: saline
[13] = dose: 12.5 mg/kg/injection, schedule: Q01DX009 (ip), vehicle: saline
[14] = dose: 25.0 mg/kg/injection, schedule: Q01DX009 (ip), vehicle: saline
[15] = dose: 50.0 mg/kg/injection, schedule: Q01DX009 (ip), vehicle: saline
[16] = dose: 100.0 mg/kg/injection, schedule: Q01DX009 (ip), vehicle: saline

In the case of `OC1CCCC2CCC[N-]C12.OC1CCCC2CCC[N-]C12.[Mn+2]` (stereo not drawn), the T/C (dose: 6.25 mg/kg/injection, schedule: Q01DX009 (ip), vehicle: DMSO) is reported as 107 % of control, the T/C (dose: 12.5 mg/kg/injection, schedule: Q01DX009 (ip), vehicle: DMSO) is reported as 110 % of control and the T/C (dose: 25.0 mg/kg/injection, schedule: Q01DX009 (ip), vehicle: DMSO) is reported as 108 % of control. The T/C (dose: 50.0 mg/kg/injection, schedule: Q01DX009 (ip), vehicle: DMSO) was 123 % of control and the T/C (dose: 100.0 mg/kg/injection, schedule: Q01DX009 (ip), vehicle: DMSO) was 100 % of control.
In the case of `C/C=C(/Cl)c1c(C)cc(C)cc1C`, the T/C [1] is reported as 108 % of control, the T/C [2] is reported as 100 % of control and the T/C [3] is reported as 108 % of control. The T/C [4] was 111 % of control and the T/C [5] was 103 % of control.
For `N#Cc1c(N)sc(N)c1C#N`, the T/C [6] was 115 % of control and the T/C [7] was 110 % of control.
In the case of `CN=C(N)c1ccc(N=C(N)c2ccc(-c3ccc(C(N)=Nc4ccc(C(N)=NC)cc4)cc3)cc2)cc1`, the T/C (dose: 3.0 mg/kg/injection, schedule: Q04DX003 (ip), vehicle: saline) is reported as 118 % of control, the T/C (dose: 3.12 mg/kg/injection, schedule: Q01DX009 (ip), vehicle: saline) is reported as 123 % of control and the T/C (dose: 5.5 mg/kg/injection, schedule: Q01DX009 (ip), vehicle: saline) is reported as 121 % of control. The T/C (dose: 6.0 mg/kg/injection, schedule: Q04DX003 (ip), vehicle: saline) was 118 % of control, the T/C (dose: 12.0 mg/kg/injection, schedule: Q04DX003 (ip), vehicle: saline) was 122 % of control and the T/C [8] was 115 % of control. For the same compound, the T/C (dose: 18.0 mg/kg/injection, schedule: Q01DX009 (ip), vehicle: saline) was 96 % of control.
For `O=C(O)CSc1ccc(NC(=O)Nc2ccccc2F)cc1`, the T/C (dose: 100.0 mg/kg/injection, schedule: Q01DX009 (ip), vehicle: Klucel (hydroxypropylcellulose) (HPC)) was 105 % of control, the T/C [6] was 105 % of control and the T/C [7] was 105 % of control.
For `CC(=O)O.[Cd]`, the T/C (dose: 5.0 mg/kg/injection, schedule: Q04DX003 (ip), vehicle: saline) was 95 % of control.
In the case of `O=S(=O)(Nc1ccc(C(F)(F)F)cc1)c1ccc(C(F)(F)F)cc1`, the T/C (dose: 50.0 mg/kg/injection, schedule: Q04DX003 (ip), vehicle: Klucel (hydroxypropylcellulose) (HPC)) is reported as 90 % of control and the T/C (dose: 100.0 mg/kg/injection, schedule: Q04DX003 (ip), vehicle: Klucel (hydroxypropylcellulose) (HPC)) is reported as 90 % of control.
With `CC1CCCC(NC(=O)N(CCCl)N=O)C1` (stereo not drawn) the T/C (dose: 0.25 mg/kg/injection, schedule: Q04DX003 (ip), vehicle: saline with Tween-80) was 115 % of control, the T/C (dose: 0.5 mg/kg/injection, schedule: Q04DX003 (ip), vehicle: saline with Tween-80) was 100 % of control and the T/C (dose: 1.0 mg/kg/injection, schedule: Q04DX003 (ip), vehicle: saline with Tween-80) was 95 % of control. For the same compound, the T/C (dose: 16.5 mg/kg/injection, schedule: Q04DX003 (ip), vehicle: saline with Tween-80) was 240 % of control, the T/C [9] was 259 % of control and the T/C (dose: 37.5 mg/kg/injection, schedule: Q04DX003 (ip), vehicle: saline with Tween-80) was 272 % of control. For the same compound, the T/C [2] was 177 % of control.
For `CCC(C)(C)c1ccc(OCCOS(=O)(=O)c2ccc(C)cc2)cc1`, the T/C [8] was 95 % of control, the T/C [10] was 100 % of control and the T/C (dose: 50.0 mg/kg/injection, schedule: Q04DX003 (ip), vehicle: saline) was 91 % of control.
With `CCOC(=O)CCc1nc(C(=O)OCC)c(C)c2nnnn12` the T/C [2] was 99 % of control, the T/C [4] was 108 % of control and the T/C [5] was 95 % of control.
In the case of `CC(=O)OCC(=O)[C@@]1(O)CC[C@H]2[C@@H]3CCC4=CC(=O)CC[C@]4(C)[C@H]3C(=O)C[C@@]21C`, the T/C [11] is reported as 95 % of control, the T/C [1] is reported as 112 % of control and the T/C [2] is reported as 100 % of control. The T/C [3] was 100 % of control and the T/C [4] was 86 % of control.
In the case of `COc1ccc(-n2c(=O)c(N=Nc3ccccc3)c(O)n(-c3ccc(C)cc3)c2=S)cc1`, the T/C (dose: 50.0 mg/kg/injection, schedule: Q01DX001 (ip), vehicle: saline sonified) is reported as 90 % of control, the T/C (dose: 100.0 mg/kg/injection, schedule: Q01DX001 (ip), vehicle: saline sonified) is reported as 100 % of control and the T/C (dose: 200.0 mg/kg/injection, schedule: Q01DX001 (ip), vehicle: saline sonified) is reported as 100 % of control.
`O=C(O)CN=Cc1ccccc1O.O=C(O)CN=Cc1ccccc1O.[Fe]` was tested, and the T/C (dose: 6.25 mg/kg/injection, schedule: Q01DX009 (ip), vehicle: saline with Tween-80) was 100 % of control, the T/C [12] was 106 % of control and the T/C (dose: 6.25 mg/kg/injection, schedule: Q04DX003 (ip), vehicle: saline) was 100 % of control. For the same compound, the T/C (dose: 12.5 mg/kg/injection, schedule: Q01DX009 (ip), vehicle: saline with Tween-80) was 100 % of control, the T/C [13] was 115 % of control and the T/C [8] was 100 % of control. For the same compound, the T/C (dose: 25.0 mg/kg/injection, schedule: Q01DX009 (ip), vehicle: saline with Tween-80) was 100 % of control and 110 % of control, the T/C [14] was 90 % of control and the T/C [9] was 100 % of control. The T/C [10] was 95 % of control, the T/C [11] was 100 % of control and the T/C [15] was 86 % of control. For the same compound, the T/C (dose: 50.0 mg/kg/injection, schedule: Q04DX003 (ip), vehicle: saline with Tween-80) was 86 % of control.
`CC(=N\O)/C(C)=N/O.CC(=N\O)/C(C)=N/O.O.[CH3-].[Co]` was tested, and the T/C [12] was 100 % of control and the T/C [13] was 97 % of control.
For `COC(=O)CC(N)C(=O)OC` (stereo not drawn), the T/C [14] was 102 % of control, the T/C [15] was 110 % of control and the T/C [16] was 103 % of control.
In the case of `CC1(C)C=C(C(N)=O)C(C)(C)N1O`, the T/C (dose: 100.0 mg/kg/injection, schedule: Q01DX001 (ip), vehicle: Klucel (hydroxypropylcellulose) (HPC)) is reported as 100 % of control, the T/C (dose: 200.0 mg/kg/injection, schedule: Q01DX001 (ip), vehicle: Klucel (hydroxypropylcellulose) (HPC)) is reported as 88 % of control and the T/C (dose: 400.0 mg/kg/injection, schedule: Q01DX001 (ip), vehicle: Klucel (hydroxypropylcellulose) (HPC)) is reported as 96 % of control.
`O=C1c2c(Cl)c(Cl)c(Cl)c(Cl)c2C(=O)N1c1ccccc1-c1ccccc1` was tested, and the T/C (dose: 175.0 mg/kg/injection, schedule: Q01DX009 (ip), vehicle: saline with Tween-80) was 89 % of control and the T/C (dose: 350.0 mg/kg/injection, schedule: Q01DX009 (ip), vehicle: saline with Tween-80) was 94 % of control.
In the case of `CS(=O)CC(O)(c1ccccc1)c1ccncc1` (stereo not drawn), the T/C [11] is reported as 99 % of control, the T/C [1] is reported as 112 % of control and the T/C [3] is reported as 110 % of control.
In the case of `[N-]=[N+]=NC(=O)c1cccs1`, the T/C (dose: 50.0 mg/kg/injection, schedule: Q01DX009 (ip), vehicle: saline + alcohol) is reported as 99 % of control.
`CNc1nc2ncn(C)c2c(=O)[nH]1` was tested, and the T/C [16] was 100 % of control, the T/C (dose: 200.0 mg/kg/injection, schedule: Q01DX009 (ip), vehicle: saline) was 109 % of control and the T/C (dose: 400.0 mg/kg/injection, schedule: Q01DX009 (ip), vehicle: saline) was 95 % of control.
For `COc1cc(N=Nc2c[nH]c3ccccc23)c(OC)cc1N=Nc1ccc([N+](=O)[O-])cc1`, the T/C (dose: 50.0 mg/kg/injection, schedule: Q01DX005 (ip), vehicle: saline with Tween-80) was 92 % of control, the T/C (dose: 100.0 mg/kg/injection, schedule: Q01DX005 (ip), vehicle: saline with Tween-80) was 106 % of control and the T/C (dose: 200.0 mg/kg/injection, schedule: Q01DX005 (ip), vehicle: saline with Tween-80) was 111 % of control.
With `Nn1nc2ccccc2n1` the T/C (dose: 100.0 mg/kg/injection, schedule: Q04DX003 (ip), vehicle: other) was 100 % of control, the T/C (dose: 200.0 mg/kg/injection, schedule: Q04DX003 (ip), vehicle: other) was 100 % of control and the T/C (dose: 400.0 mg/kg/injection, schedule: Q04DX003 (ip), vehicle: other) was 100 % of control.
In the case of `CC(=O)N(NC(=O)c1ccccn1)C(C)=O`, the T/C (dose: 50.0 mg/kg/injection, schedule: Q01DX009 (ip), vehicle: saline sonified) is reported as 86 % of control, the T/C (dose: 50.0 mg/kg/injection, schedule: Q04DX003 (ip), vehicle: saline sonified) is reported as 104 % of control and the T/C (dose: 100.0 mg/kg/injection, schedule: Q01DX009 (ip), vehicle: saline sonified) is reported as 95 % of control. For the same compound, the T/C (dose: 100.0 mg/kg/injection, schedule: Q04DX003 (ip), vehicle: saline sonified) was 90 % of control, the T/C (dose: 200.0 mg/kg/injection, schedule: Q01DX009 (ip), vehicle: saline sonified) was 91 % of control and the T/C (dose: 200.0 mg/kg/injection, schedule: Q04DX003 (ip), vehicle: saline sonified) was 104 % of control.

— PubChem BioAssay AID328 (DTP/NCI, 2004)
